The text below walks through data of patent publication US20130123460A1, “PEPTIDE FOR IMPROVING BIOSTABILITY OF BIOACTIVE SUBSTANCE, AND BIOACTIVE SUBSTANCE HAVING IMPROVED BIOSTABILITY” (priority 2010, published 2013).

Bridges are numbered along the chain shown (N, C = ends). Where no end group is shown, it is not given here.

One series addresses T1, endogenous VIP receptor (Homo sapiens, UniProt P41587).
T1 construct: expressing an endogenous VIP receptor; host or cells: SUP-T1 human T-cell line
T1 sequence (P41587 24-438): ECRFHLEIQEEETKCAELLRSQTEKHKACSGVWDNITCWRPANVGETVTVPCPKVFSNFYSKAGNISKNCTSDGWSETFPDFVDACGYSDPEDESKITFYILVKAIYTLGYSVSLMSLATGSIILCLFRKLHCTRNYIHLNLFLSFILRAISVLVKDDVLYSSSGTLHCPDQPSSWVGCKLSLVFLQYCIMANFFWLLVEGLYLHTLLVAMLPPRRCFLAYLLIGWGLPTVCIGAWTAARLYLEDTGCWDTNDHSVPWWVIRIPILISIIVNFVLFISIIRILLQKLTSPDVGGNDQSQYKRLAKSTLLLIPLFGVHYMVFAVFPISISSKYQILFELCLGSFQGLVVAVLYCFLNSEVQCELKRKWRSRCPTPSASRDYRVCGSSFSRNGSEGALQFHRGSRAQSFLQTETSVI
Kind of series: cAMP productivity in SUP-T1 cells. It counts as cell-based. The note with it: 3-3000 nM, IBMX, 30 minutes. The method, then:
A productivity of cAMP was analyzed in vitro, in order to evaluate the activity intensity of the VIP peptide complexes showing the plasma stability in Experimental Example 4.
An intracellular cAMP productivity was evaluated using SUP-T1 cells which were derived from human T-cell, expressing an endogenous VIP receptor (purchased from ATCC). The SUP-T1 cells which were subjected to suspension culture for 48 or more hours were moved to a tube, and the cells were washed twice with a medium (RPMI-1640). After that, a medium including IBMX (3-isobutyl-1-methylxanthine), which was an inhibitor of a catabolic enzyme of the cAMP, was added thereto, and the mixture was incubated at 37° C. for 15 minutes. After centrifugation, the supernatant was removed, and an IBMX-containing medium including the VIP peptide complex was added thereto. The reaction was performed at 37° C. for 30 minutes. After the reaction, the tube was centrifuged, the supernatant was removed, and the cell lysate was added thereto. The mixture was incubated at 37° C. for 30 minutes to dissolve the cells, and the productivity was evaluated by the measurement of the cAMP. The cAMP measurement was performed using an enzyme-linked immunosorbent assay (ELISA) by chemiluminescence detection.
The activity intensity (%) of the VIP peptide complex was calculated according to the following formula.
Activity Intensity (%)=[{(the maximum amount of the cAMP produced in each VIP peptide complex)/(the maximum amount of the cAMP produced in native VIP)]×100

Series [1] can be described thus: Plasma stability of VIP peptide complex (remaining rate in rat plasma). It counts as in vitro ADME, SD rats. The note with it: VIP complexes, 37° C.; for remaining at 8 h, 0.5 μmol/L / remaining at 48 h, 0.5 μmol/L: SD; for remaining at 8 h, 0.5 μmol/L: read-out: Remaining rate in plasma after 8 hours (%); for remaining at 48 h, 0.5 μmol/L: read-out: Remaining rate in plasma after 48 hours; for Remaining rate in plasma after 8 hours (%) / Remaining rate in plasma after 48 hours: 0.5 μmol/L.
Procedure: The plasma stability was evaluated in vitro, in order to inspect the biostability of the VIP peptide complex.
SD rats were anesthetized with diethyl ether, whole blood was collected, and a plasma fraction was separated therefrom. The VIP or VIP-peptide complex was added to the plasma so that the final concentration thereof was 0.5 μmol/L, and the mixture was incubated at 37° C. A sample was recovered after 0, 8 or 48 hours, and a remaining rate was evaluated by an HPLC/MS measurement of an amount of the VIP or VIP peptide complex.

Series [2] can be described thus: Plasma stability of amylin complex (remaining rate in rat plasma). It counts as in vitro ADME, SD rats. The note with it: for remaining at 0.5 h, 0.5 μmol/L / remaining at 2 h, 0.5 μmol/L / remaining at 8 h, 0.5 μmol/L: SD. How it is done:
Evaluation was performed in a manner in which after the treatment of the amylin or amylin peptide complex with plasma for a pre-determined time, an amount of change of the amylin peptide (complex) undecomposed was measured by an HPLC/MS.

Series [3] can be described thus: Plasma stability of ghrelin peptide complex (remaining rate in rat plasma). The conditions noted are these: 37° C. It counts as in vitro ADME, SD rats. The method, then: Evaluation was performed in a manner in which after the treatment of the ghrelin or ghrelin peptide complex in plasma for a pre-determined time, an amount of change of the ghrelin or ghrelin peptide complex undecomposed was measured by an HPLC/MS.

With `CC[C@H](C)[C@H](NC(=O)[C@H](CO)NC(=O)[C@H](CC(N)=O)NC(=O)[C@H](CC(C)C)NC(=O)[C@H](Cc1ccc(O)cc1)NC(=O)[C@H](CCCCN)NC(=O)[C@H](CCCCN)NC(=O)[C@@H](NC(=O)[C@H](C)NC(=O)[C@H](CCSC)NC(=O)[C@H](CCC(N)=O)NC(=O)[C@H](CCCCN)NC(=O)[C@H](CCCNC(=N)N)NC(=O)[C@H](CC(C)C)NC(=O)[C@H](CCCNC(=N)N)NC(=O)[C@@H](NC(=O)[C@H](Cc1ccc(O)cc1)NC(=O)[C@H](CC(N)=O)NC(=O)[C@H](CC(=O)O)NC(=O)[C@@H](NC(=O)[C@H](Cc1ccccc1)NC(=O)[C@@H](NC(=O)[C@H](C)NC(=O)[C@H](CC(=O)O)NC(=O)[C@H](CO)NC(=O)[C@@H](N)Cc1c[nH]cn1)C(C)C)[C@@H](C)O)[C@@H](C)O)C(C)C)C(=O)N[C@@H](CC(C)C)C(=O)N[C@@H](CC(N)=O)C(N)=O` [Comparative Example 14, VIP(1-28)-NH2, reference compound], at endogenous VIP receptor, the “Activity Intensity (%), maximum amount of cAMP produced relative to native VIP” value turned out to be 100%. Besides, in series [1], the fraction remaining at 8 h, 0.5 μmol/L was 0%; the amount remaining at 48 h, 0.5 μmol/L turned out to be 0%; the “Remaining rate in plasma after 8 hours (%)” value is “completely decomposed”.
Consider `CC[C@H](C)[C@H](NC(=O)[C@H](C)NC(=O)CNC(=O)[C@H](Cc1ccccc1)NC(=O)[C@H](CC(N)=O)NC(=O)[C@H](CC(N)=O)NC(=O)[C@H](CO)NC(=O)[C@H](CO)NC(=O)[C@H](Cc1c[nH]cn1)NC(=O)[C@@H](NC(=O)[C@H](CC(C)C)NC(=O)[C@H](Cc1ccccc1)NC(=O)[C@H](CC(N)=O)NC(=O)[C@H](C)NC(=O)[C@H](CC(C)C)NC(=O)[C@H](CCCNC(=N)N)NC(=O)[C@H](CCC(N)=O)NC(=O)[C@@H](NC(=O)[C@H](C)NC(=O)[C@@H]1CSSC[C@H](NC(=O)[C@@H](N)CCCCN)C(=O)N[C@@H](CC(N)=O)C(=O)N[C@@H]([C@@H](C)O)C(=O)N[C@@H](C)C(=O)N[C@@H]([C@@H](C)O)C(=O)N1)[C@@H](C)O)C(C)C)C(=O)N[C@@H](CC(C)C)C(=O)N[C@@H](CO)C(=O)N[C@@H](CO)C(=O)N[C@H](C(=O)N[C@@H](CC(N)=O)C(=O)N[C@H](C(=O)NCC(=O)N[C@@H](CO)C(=O)N[C@@H](CC(N)=O)C(=O)N[C@H](C(=O)N[C@@H](Cc1ccc(O)cc1)C(N)=O)[C@@H](C)O)C(C)C)[C@@H](C)O` [Comparative Example 16, Amylin(1-37)-NH2], for which the fraction remaining at 0.5 h, 0.5 μmol/L in series [2] (amylin, rat plasma, 0.5 μmol/L, 37° C., 0.5 hour, read-out: Remaining rate in plasma after 0.5 hour (%)) was found to be 43%. The amount remaining at 2 h, 0.5 μmol/L in series [2] (amylin, rat plasma, 0.5 μmol/L, 37° C., 2 hours, read-out: Remaining rate in plasma after 2 hours (%)) was 15%. In addition, the amount remaining at 8 h, 0.5 μmol/L in series [2] (amylin, rat plasma, 0.5 μmol/L, 37° C., 8 hours, read-out: Remaining rate in plasma after 8 hours (%)) amounted to 0%. For the same compound, the “Remaining rate in plasma after 2 hours (%)” value in series [2] (amylin, rat plasma, 0.5 μmol/L, 37° C., 2 hours) worked out at 15%.
In the case of `CCCCCCCC(=O)OC[C@H](NC(=O)[C@H](CO)NC(=O)CN)C(=O)N[C@@H](Cc1ccccc1)C(=O)N[C@@H](CC(C)C)C(=O)N[C@@H](CO)C(=O)N1CCC[C@H]1C(=O)N[C@@H](CCC(=O)O)C(=O)N[C@@H](Cc1c[nH]cn1)C(=O)N[C@@H](CCC(N)=O)C(=O)N[C@@H](CCCNC(=N)N)C(=O)N[C@H](C(=O)N[C@@H](CCC(N)=O)C(=O)N[C@@H](CCC(N)=O)C(=O)N[C@@H](CCCNC(=N)N)C(=O)N[C@@H](CCCCN)C(=O)N[C@@H](CCC(=O)O)C(=O)N[C@@H](CO)C(=O)N[C@@H](CCCCN)C(=O)N[C@@H](CCCCN)C(=O)N1CCC[C@H]1C(=O)N1CCC[C@H]1C(=O)N[C@@H](C)C(=O)N[C@@H](CCCCN)C(=O)N[C@@H](CC(C)C)C(=O)N[C@@H](CCC(N)=O)C(=O)N1CCC[C@H]1C(=O)N[C@@H](CCCNC(=N)N)C(N)=O)C(C)C` [Comparative Example 17, Ghrelin(1-28)-NH2], the “Remaining rate in plasma after 2 hours (%)” value in series [3] (0.5 μmol/L, 2 hours) turned out to be 14%. For the same compound, in series [3] (SD, 0.5 hour, read-out: Remaining rate in plasma after 0.5 hour (%)), the share remaining at 0.5 h, 0.5 μmol/L is 50%. The fraction remaining at 2 h, 0.5 μmol/L in series [3] (SD, 2 hours, read-out: Remaining rate in plasma after 2 hours (%)) was determined as 14%. Moreover, in series [3] (SD, 8 hours, read-out: Remaining rate in plasma after 8 hours (%)), the fraction remaining at 8 h, 0.5 μmol/L is 0%.
As for `CC[C@H](C)[C@H](NC(=O)[C@H](CCC(=O)O)NC(=O)[C@H](CC(=O)O)NC(=O)[C@@H](NC(=O)[C@H](CC(C)C)NC(=O)[C@H](CC(N)=O)NC(=O)[C@H](CC(C)C)NC(=O)[C@@H](NC(=O)[C@H](CO)NC(=O)[C@H](CC(N)=O)NC(=O)[C@H](CC(C)C)NC(=O)[C@H](Cc1ccc(O)cc1)NC(=O)[C@H](CCCCN)NC(=O)[C@H](CCCCN)NC(=O)[C@@H](NC(=O)[C@H](C)NC(=O)[C@H](CCSC)NC(=O)[C@H](CCC(N)=O)NC(=O)[C@H](CCCCN)NC(=O)[C@H](CCCNC(=N)N)NC(=O)[C@H](CC(C)C)NC(=O)[C@H](CCCNC(=N)N)NC(=O)[C@@H](NC(=O)[C@H](Cc1ccc(O)cc1)NC(=O)[C@H](CC(N)=O)NC(=O)[C@H](CC(=O)O)NC(=O)[C@@H](NC(=O)[C@H](Cc1ccccc1)NC(=O)[C@@H](NC(=O)[C@H](C)NC(=O)[C@H](CC(=O)O)NC(=O)[C@H](CO)NC(=O)[C@@H](N)Cc1c[nH]cn1)C(C)C)[C@@H](C)O)[C@@H](C)O)C(C)C)[C@@H](C)CC)[C@@H](C)CC)C(=O)N[C@@H](CC(C)C)C(=O)N[C@@H](C)C(=O)N[C@@H](C)C(N)=O` [Example 25, VIP(1-28)-GAm(37-44)-NH2], at endogenous VIP receptor, the “Activity Intensity (%), maximum amount of cAMP produced relative to native VIP” value was determined as 81%. Besides, in series [1], the amount remaining at 8 h, 0.5 μmol/L was 118%; the fraction remaining at 48 h, 0.5 μmol/L came to 118%; the “Remaining rate in plasma after 8 hours (%)” value is reported as “not totally decomposed”; the “Remaining rate in plasma after 48 hours” value stood at 118%.
Regarding “AKTVEGVKALIDEILAAKCNTATCATQRLANFLVHSSNNFGAILSSTNVGSNTY-NH2 (disulfide 19-24) [Example 30, GAm(28-44)-Amylin(1-37)-NH2]”, in series [2] (rat, plasma), the amount remaining at 0.5 h, 0.5 μmol/L came out at 88%; the share remaining at 2 h, 0.5 μmol/L amounted to 67%; the fraction remaining at 8 h, 0.5 μmol/L was found to be 9%.
In the case of “HSDAVFTDNYTRLRKQMAVKKYLNSILNAKTVEGVKALIDEILAA-NH2 [Example 27, VIP(1-28)-GAm(28-44)-NH2]”, on endogenous VIP receptor, the “Activity Intensity (%), maximum amount of cAMP produced relative to native VIP” value is 67%. Moreover, in series [1], the share remaining at 8 h, 0.5 μmol/L worked out at 109%; the share remaining at 48 h, 0.5 μmol/L came to 35%; the “Remaining rate in plasma after 8 hours (%)” value is listed as “not totally decomposed”; the “Remaining rate in plasma after 48 hours” value is reported as 35%.
As to “HSDAVFTDNYTRLRKQMAVKKYLNSILNEGVKALIDEILAA-NH2 [Example 26, VIP(1-28)-GAm(32-44)-NH2]”, the “Activity Intensity (%), maximum amount of cAMP produced relative to native VIP” value on endogenous VIP receptor stood at 85%. In series [1], the amount remaining at 8 h, 0.5 μmol/L turned out to be 99%; the fraction remaining at 48 h, 0.5 μmol/L amounted to 47%; the “Remaining rate in plasma after 8 hours (%)” value is recorded as “not totally decomposed”; the “Remaining rate in plasma after 48 hours” value is 47%.
